Results taken from US4431639A, “Adjuvant for stimulating production of lymphocytes” (priority 1979, dated 1984).
Entries after “also recorded” stand apart in the source; their conditions may differ.

System: Sarcoma 180
Experiment: Survival / recovery of mice after intraperitoneal inoculation of Sarcoma 180
Type: in vivo, mice (I.C.R.)
Conditions: for effectiveness against Sarcoma 180 compared with the extract of the natural herb: comparison in words; for effectiveness for treating mice inoculated with Sarcoma 180: in words
Procedure: White male mice (I.C.R.) weighing 16 to 18 g.
1 gm of the dried powder was dissolved in 160 ml of tap water and was put into the animal cages in place of the usual drinking water, so that the test mice ingested it ad libitum. […]
A large volume of ether extract from a powder of Rhizoma Atractylis alba was produced. Some definite weights of the ether extract were dissolved in small volumes of ethanol, and then diluted with water to obtain emulsions of ether extract/water of 1 mg/100 ml, 2 mg/100 ml, 3 mg/100 ml, 4 mg/100 ml and 5 mg/100 ml.
The emulsions were administered to I.C.R. male mice for one month as described in Example 4, and then the mice were inoculated with 200,000 cells of Sarcoma 180 intraperitoneally. The survival time of the inoculated mice was regressed to the concentration of ether extract administered. […]
Mandelic acid, mandelic acid isoamyl ester (Atractyl), mandelic acid methyl ester, mandelic acid ethyl ester and atrolactic acid were tested by the same procedure as described in Example 6.

SMILES	effectiveness against Sarcoma 180 compared with the extract of the natural herb	effectiveness for treating mice inoculated with Sarcoma 180
CC(C)CCOC(=O)C(O)c1ccccc1 (stereo not shown) [Atractyl, mandelic acid isoamyl ester]	less effective than the extract from the natural herb; also recorded: significantly less than that of the extract of the natural herb	somewhat effective
O=C(O)C(O)c1ccccc1 (stereo not shown) [Mandelic acid]	less effective than the extract from the natural herb	somewhat effective
CC(O)(C(=O)O)c1ccccc1 (stereo not shown) [atrolactic acid]	less effective than the extract from the natural herb	somewhat effective
CCOC(=O)C(O)c1ccccc1 (stereo not shown) [mandelic acid ethyl ester]	less effective than the extract from the natural herb	somewhat effective
COC(=O)C(O)c1ccccc1 (stereo not shown) [mandelic acid methyl ester]	less effective than the extract from the natural herb	somewhat effective
